Source: patent US8633251B2, “Derivatives of aminoalkanols, method of obtaining of aminoalkanols and their use” (Uniwersytet Jagiellonski, priority 2008, dated 2014)
Like-named read-outs stand apart in the source and are kept apart here.

What was measured:
[1] = test system: maximal electroshock seizures; test: Maximum Electroshock Seizure (MES) test, mice; type: in vivo
In short: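 Mice received compound in methylcellulose i.p. or p.o. at 30, 100 and 300 mg/kg, with some tests at 10 and 3 mg/kg. At 0.5 or 4 h, after tetracaine eye-drops, current was delivered through corneal electrodes (60 Hz, 0.2 s, 50 mA). Groups were one mouse at 30 and 300 mg/kg and three at 100 mg/kg.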

[2] = test system: maximal electroshock seizures; test: Maximum Electroshock Seizure (MES) test, rats; type: in vivo
Method: In order to define anticonvulsant activity, screening tests were performed, using animal models of seizures. […] The tests were based on administration of a compound to an animal and after certain time inducing state similar to epilepsy attack in human. Each substance (after dissolving in methylcellulose) was normally tested in doses 30, 100, and 300 mg/kg body weight (b.w.) (mice) or in 30 and 50 mg/kg b.w. (rats) in two possible routes of administration: intraperitoneal (i.p.) or oral (p.o.). […] […] (mice) the tests were also performed in doses 10 and 3 mg/kg b.w.
Maximum Electroshock Seizure (MES) test is an electric test, verifying activity towards generalized tonic-clonic seizures (grand mal epilepsy). […] Its procedure consists in administration to an animal a mentioned dose, […] (after anesthetic eye-drops: 0.5% tetracaine hydrochloride in 0.9% NaCl) and turning on electric current (60 Hz, 0.2 s, 50 mA (mice) or 150 mA (rats)). […]

[3] = test system: neurotoxicity (rotarod); test: Neurotoxicity test (TOX), rotarod, mice; type: in vivo
[4] = test system: seizures induced by picrotoxin; test: Picrotoxin (PIC) induced seizures; type: in vivo
Method: (§1) For some compounds, a test for proconvulsant activity was performed (TTE test), as well as a test on activity in focal seizures (related with limbic system, 6 Hz test, hippocampal kindling). […] A test on inhibiting seizures induced by sound (Frings mice) was performed for compounds 12 and 26-28. Electrophysiology tests also have been performed, for seizures induced by bicuculline, picrotoxin, and NMDA. Prevention of (pilocarpine induced) status epilepticus has been noticed.

[5] = test system: formalin-induced pain (acute/neuropathic and inflammatory phase); test: Formalin test, mice; type: in vivo
Method: The test was performed with use of formaldehyde as a substance causing pain (neuropathic and inflammatory afterwards) in mice, which were injected formalin into a hind limb.
During the first 10 min. after administration the mouse is licking the hind limb (acute phase), afterwards there is a short break in behavior change, and then the mouse licks its limb again for another 20-30 min. (inflammatory phase) (FIG. 3 for 12 and FIG. 4 for 26). The acute phase represents direct affection on the peripheral nerve and the inflammatory phase is related with secretion of inflammation mediators from the damaged tissue and nerves. The described model tests effectiveness of a substance to inhibit acute and chronic excessive neuronal discharges in response to peripheral nerves activation.

[6] = test system: voltage-gated sodium channels; test: Electrophysiology, voltage-gated sodium channels; type: biochemical
[7] = test system: hippocampal kindling seizures; test: Electric hippocampal kindling, rats; type: in vivo
Method: as §1

[8] = test system: seizures induced by sound; test: Sound-induced seizures, Frings mice; type: in vivo
Method: as §1

[9] = test system: seizures induced by bicuculline; test: Bicuculline (BIC) induced seizures; type: in vivo
Method: as §1

[10] = test system: metrazol seizure threshold; test: Metrazol test, time to first twitch and first clonus; type: in vivo; settings: for average time until the first twitch: control 30.07 (±1.23) min.; for average time from administration until the first clonus: control 34.38 (±0.94) min.
Method: In the MES test it inhibits seizures by inhibiting post-synaptic excitatory current. […] In the metrazol test average time until the first twitch was 27.3±0.2 min. for the dose 5 mg/kg b.w. and 27.6 (±0.3) min. for the dose 30 mg/kg b.w., comparing to the control 30.07 (±1.23) min. Average time from administration until the first clonus was 33.6 (±1.23) min. for the dose 5 mg/kg b.w. and 32.70 (±1.28) for the dose 30 mg/kg b.w., comparing to the control 34.38 (±0.94) min.

[11] = test system: 6 Hz focal seizures (limbic system); test: 6 Hz test, mice; type: in vivo; settings: for ED50: Mus musculus, ip, 0.25 h
Method: as §1

[12] = test system: LTG-resistant amygdala seizures; test: Lamotrigine-resistant amygdala kindling, rats; type: in vivo; settings: t=0.25 h, i.p.
[13] = test system: pilocarpine induced status epilepticus; test: Status epilepticus prevention (pilocarpine), rats; type: in vivo, Sprague Dawley albino rat; settings: i.p.; for Average weight loss ± S.E.M.: body weight loss 24 h after administration, 25 (27) or 45 (28) mg/kg b.w.; for protection in status epilepticus prevention: 25 (27) and 45 (28) mg/kg b.w.; for Protection: rats protected/tested, time 0 h, dose 25 (27) or 45 (28) mg/kg b.w.
Method: Status epilepticus prevention—an animal (Sprague Dawley albino rat male) is given a dose of tested substance. After 0, 0.25, 0.5, 1, 2, and 4 h pilocarpine is administered. The seizures induced are described by Racine's score. Compounds 27 and 28 were administered i.p. in doses 25 and 45 mg/kg b.w. respectively. […] Average body weight loss is measured 24 h after administration.

[14] = mice, dose 30 mg/kg b.w., time 0.5 h
[15] = mice, dose 100 mg/kg b.w., time 0.5 h
[16] = mice, dose 300 mg/kg b.w., time 0.5 h
[17] = mice, dose 10 mg/kg b.w., time 0.5 h

## Cc1cccc(C)c1OCCNC(C)CO (stereo not shown) [Compound 11, R,S-2N-[(2,6-dimethylphenoxy)ethyl]amino-1-propanol]
[1]; [14]
  MES, No. of protected animals/No. of used animals: 1/1
[2]
  ED50 (MES, rats, p.o., 0.25 h): 47.03 mg/kg b.w.
[3]; mouse, in vivo, 30 mg/kg
  TOX, No. of animals exhibiting motor impairment/no. of used animals: 2/4
[3]; mouse, in vivo, 100 mg/kg
  TOX, No. of animals exhibiting motor impairment/no. of used animals: 8/8
[3]; mouse, in vivo, 300 mg/kg
  TOX, No. of animals exhibiting motor impairment/no. of used animals: 4/4

## Cc1cccc(C)c1OCCN[C@H](C)CO [Compound 12, R-(−)-2N-[(2,6-dimethylphenoxy)ethyl]amino-1-propanol]
[4]
  ED50 (PIC, 0.25 h): > 75 mg/kg b.w.
[5]; mice
  formalin test result (FIG. 3): inhibiting neuropathic pain (first 10 min. phase) and inflammatory pain (next 30 min. phase)
[1]; Mus musculus, mice, dose 10 mg/kg b.w., time 0.5 h, read-out: MES, No. of protected animals/No. of used animals (converted)
  responders at 10 mg/kg: 25%
[1]; Mus musculus, mice, dose 30 mg/kg b.w., time 0.5 h, read-out: MES, No. of protected animals/No. of used animals
  responders at 30 mg/kg: 100%
[1]; Mus musculus, mice, dose 100 mg/kg b.w., time 0.5 h, read-out: MES, No. of protected animals/No. of used animals (converted)
  responders at 100 mg/kg: 100%
[1]; Mus musculus, mice, dose 100 mg/kg b.w., time 4 h, read-out: MES, No. of protected animals/No. of used animals (converted)
  responders at 100 mg/kg: 50%
[1]; female mice, i.p., 0.25 h
  ED50 (MES, female mice, i.p., 0.25 h): 22.28 mg/kg b.w.
[1]; mice
  activity in MES, mice: active
[1]; mice, i.p., 0.25 h
  ED50 (MES, mice, i.p., 0.25 h): 5.34 mg/kg b.w.
[1]; mice, p.o., 0.25 h
  ED50 (MES, mice, p.o., 0.25 h): 51.19 mg/kg b.w.
[6]
  effect on voltage-gated sodium channels: blocks voltage-gated sodium channels dependently on the voltage
[2]
  activity in MES, rats: active
  ED50 (MES, rats, i.p., 0.25 h): 7.43 mg/kg b.w.
  ED50 (MES, rats, p.o., 0.25 h): 28.60 mg/kg b.w.
[7]; 0.25 h after administration of 60 mg/kg b.w.
  activity in electric kindling (rats, hippocampus): reveals activity
[7]
  ED50 (kindling, rats, hippocampus, 0.25 h): > 30 mg/kg b.w.
[8]; Frings mice
  ED50 (Frings mice, 0.25 h): 5.39 mg/kg b.w.
[9]
  ED50 (BIC, 0.25 h): > 75 mg/kg b.w.
[10]; dose 5 mg/kg b.w.
  average time until the first twitch: 27.3 ± 0.2 min
  average time from administration until the first clonus: 33.6 (±1.23) min.
[10]; dose 30 mg/kg b.w.
  average time until the first twitch: 27.6 (±0.3) min.
  average time from administration until the first clonus: 32.70 (±1.28)
[3]; [15]
  TOX, No. of animals exhibiting motor impairment/no. of used animals: 8/8
[3]; mice, dose 100 mg/kg b.w., time 4 h, 100 mg/kg
  TOX, No. of animals exhibiting motor impairment/no. of used animals: 1/3
[3]; [16]
  TOX, No. of animals exhibiting motor impairment/no. of used animals: 4/4
[11]; read-out: ED50 (6 Hz, female mice, i.p., 22 mA, 0.25 h)
  ED50: 7.06 mg/kg
[11]; read-out: ED50 (6 Hz, mice, i.p., 22 mA, 0.25 h)
  ED50: 43.8 mg/kg
[11]; female mice, i.p., 44 mA
  ED50 (6 Hz, female mice, i.p., 44 mA, 0.25 h): 41.3 mg/kg b.w.
[11]; mice, i.p., 44 mA
  ED50 (6 Hz, mice, i.p., 44 mA, 0.25 h): 30.02 mg/kg b.w.

## Cc1cccc(C)c1OCCN[C@@H](C)CO [Compound 13, S-(+)-2N-[(2,6-dimethylphenoxy)ethyl]amino-1-propanol]
[1]; [17]
  MES, No. of protected animals/No. of used animals: 2/4
[1]; [14]
  MES, No. of protected animals/No. of used animals: 1/1
[1]; mice, i.p., 0.25 h
  ED50 (MES, mice, i.p., 0.25 h): 8.59 mg/kg b.w.
[2]
  ED50 (MES, rats, i.p., 0.25 h): 6.50 mg/kg b.w.
[3]; mouse, in vivo, 100 mg/kg
  TOX, No. of animals exhibiting motor impairment/no. of used animals: 8/8
[3]; mouse, in vivo, 300 mg/kg
  TOX, No. of animals exhibiting motor impairment/no. of used animals: 4/4

## CCC(CO)NCCOc1c(C)cccc1Cl (stereo not shown) [Compound 26, R,S-2N-[(2-chlor-6-methylphenoxy)ethyl]amino-1-butanol]
[4]
  ED50 (PIC, 0.25 h): > 70 mg/kg b.w.
[5]; 21 mg/kg b.w.
  neuropathic pain inhibition (formalin test): 36%
[5]; mice, i.p., 21 mg/kg b.w., first ca. 10 min. after formalin, p<0.01
  acute phase of the formalin test: 64 % of control
[5]; mice, i.p., 21 mg/kg b.w., not statistically significant
  inflammatory phase of the formalin test: 72 % of control
[1]; [17]
  MES, No. of protected animals/No. of used animals: 2/4
[1]; [14]
  MES, No. of protected animals/No. of used animals: 1/1
[1]; [15]
  MES, No. of protected animals/No. of used animals: 1/1
[1]; mice, i.p., 0.25 h
  ED50 (MES, mice, i.p., 0.25 h): 21.44 mg/kg b.w.
[2]
  ED50 (MES, rats, i.p., 0.25 h): 7.3 mg/kg b.w.
  ED50 (MES, rats, p.o., 0.25 h): 67.69 mg/kg b.w.
[8]; mice
  ED50 (sound induced seizures, mice, 0.25 h): 6.05 mg/kg b.w.
[9]
  ED50 (BIC, 0.25 h): > 70 mg/kg b.w.
[12]
  effective dose (LTG-resistant amygdala seizures): 15 mg/kg b.w.
[3]; [15]
  TOX, No. of animals exhibiting motor impairment/no. of used animals: 8/8
[3]; [16]
  TOX, No. of animals exhibiting motor impairment/no. of used animals: 4/4

## CC[C@H](CO)NCCOc1c(C)cccc1Cl [Compound 27, R-(−)-2N-[(2-chlor-6-methylphenoxy)ethyl]amino-1-butanol]
[1]; [14]
  MES, No. of protected animals/No. of used animals: 1/1
[1]; [15]
  MES, No. of protected animals/No. of used animals: 1/1
[13]
  Average weight loss ± S.E.M.: 8.3 ± 7.1
  protection in status epilepticus prevention: 2 rats out of 8
  Protection: 2/8
[3]; [15]
  TOX, No. of animals exhibiting motor impairment/no. of used animals: 8/8
[3]; [16]
  TOX, No. of animals exhibiting motor impairment/no. of used animals: 4/4

## CC[C@@H](CO)NCCOc1c(C)cccc1Cl [Compound 28, S-(+)-2N-[(2-chlor-6-methylphenoxy)ethyl]amino-1-butanol]
[1]; [14]
  MES, No. of protected animals/No. of used animals: 1/1
[1]; [15]
  MES, No. of protected animals/No. of used animals: 1/1
[7]
  ED50 (kindling, rats, hippocampus, 0.25 h): 15.81 mg/kg b.w.
[13]
  Average weight loss ± S.E.M.: 3.8 ± 5.7
  protection in status epilepticus prevention: 3 rats out of 8
  Protection: 3/8
[3]; [15]
  TOX, No. of animals exhibiting motor impairment/no. of used animals: 8/8
[3]; [16]
  TOX, No. of animals exhibiting motor impairment/no. of used animals: 4/4
